In patent US20230042936A1, “PYRIDO[2,3-d]PYRIMIDIN-7(8H)-ONES AS CDK INHIBITORS” (PROSENESTAR LLC, priority 2020, published 2023):

Experiments:
CDK6/CycD3 = CDK6/CycD3 (Homo sapiens, UniProt Q00534); experiment: Kinase profiling; assay type: biochemical; conditions: 10 semi-logarithmic dilutions from 50 μM, singlicate
PIM1 = PIM1 (Homo sapiens, UniProt P11309); experiment: Kinase profiling; assay type: biochemical; conditions: 10 semi-logarithmic dilutions from 50 μM, singlicate
HIPK2 = HIPK2 (Homo sapiens, UniProt Q9H2X6); experiment: Kinase profiling; assay type: biochemical; conditions: 10 semi-logarithmic dilutions from 50 μM, singlicate; read-out: IC50 HIPK2
CDK6/CycD1 = CDK6/CycD1 (Homo sapiens, UniProt Q00534); experiment: Kinase profiling; assay type: biochemical; conditions: 10 semi-logarithmic dilutions from 50 μM, singlicate
CDK5/p25NCK = CDK5/p25NCK (Homo sapiens, UniProt Q00535); experiment: Kinase profiling; assay type: biochemical; conditions: 10 semi-logarithmic dilutions from 50 μM, singlicate
CDK3/CycE1 = CDK3/CycE1 (Homo sapiens, UniProt Q00526); experiment: Kinase profiling; assay type: biochemical; conditions: 10 semi-logarithmic dilutions from 50 μM, singlicate
CDK8/CycC = CDK8/CycC (Homo sapiens, UniProt P49336); experiment: Kinase profiling; assay type: biochemical; conditions: 10 semi-logarithmic dilutions from 50 μM, singlicate
CDK1/CycA2 = CDK1/CycA2 (Homo sapiens, UniProt P06493); experiment: Kinase profiling; assay type: biochemical; conditions: 10 semi-logarithmic dilutions from 50 μM, singlicate
[1] = Metabolic stability in microsomes; assay type: in vitro ADME; conditions: mouse, 60-90 min test
CDK12wt/CycK = CDK12wt/CycK (Homo sapiens, UniProt Q9NYV4); experiment: Kinase profiling; assay type: biochemical; conditions: 10 semi-logarithmic dilutions from 50 μM, singlicate
CDK2/CycA2 = CDK2/CycA2 (Homo sapiens, UniProt P24941); experiment: Kinase profiling; assay type: biochemical; conditions: 10 semi-logarithmic dilutions from 50 μM, singlicate
ERK1 = ERK1 (Homo sapiens, UniProt P27361); experiment: Kinase profiling; assay type: biochemical; conditions: 10 semi-logarithmic dilutions from 50 μM, singlicate
[2] = Summary of solubility, metabolic stability and permeability
[3] = target: panel of 27 kinases (CDK family members); experiment: Kinase profiling, results in words; assay type: biochemical; conditions: from Table 1
CDK7/CycH/MAT1 = CDK7/CycH/MAT1 (Homo sapiens, UniProt P50613); experiment: Kinase profiling; assay type: biochemical; conditions: 10 semi-logarithmic dilutions from 50 μM, singlicate
[4] = tested on: MDA-MB-231-derived xenografts; experiment: Tumor xenografts; assay type: in vivo, Athymic nude mice; conditions: 100 mg/Kg intraperitoneally twice per week, two weeks
Method: For histological analysis, mice tissues and human xenografts were fixed in 10%-buffered formalin (Sigma) and embedded in paraffin wax. Sections of 3- or 5-μm thickness were stained with haematoxylin and eosin. Additional immunohistochemical examination was performed using a specific antibody against phospho-Rb (Ser807/811; Cell Signaling) or Ki67 (DAKO).
DMSO, PS004, PS006 and PS009 were diluted in sesame oil and administered intraperitoneally twice per week during two weeks at 100 mg/Kg. […] Tumor growth was monitored using caliper measurements and tumor size was estimated using the following formula: Tumor volume (mm^3)=d^2·D/2 where d and D, are the shortest and longest diameter in mm, respectively. After completing the treatment, mice were sacrificed and tumors were extracted, weighed, and fixed for histological analysis.
The therapeutic effect of the subject compounds was then tested by treating mice previously injected subcutaneously with MDA-MB-231 breast cancer cells. […] The dose amount of 100 mg/kg dosage in these cases was administered at a frequency of two injections per week for the total of two weeks of treatment.

[5] = tested on: pRB-wild-type and pRB-deficient glioblastoma cells (U87MG, SW1783); experiment: GI50 compared in pRB-wild-type and pRB-deficient cells; assay type: cell-based, human; conditions: comparison of GI50, Table 4
Method: […]. Cell counts were determined by the Opera software (Perkin Elmer) and data were further processed with SPSS software. GI50 was calculated by estimating the absolute IC50 using dose-response inhibition tool in Prism6 (Graphpad Software Inc.).
CDK4/6 kinases drive cell cycle progression by phosphorylating the retinoblastoma protein (pRB), thus, releasing its repressive activity on transcription. Accordingly, CDK4/6 specific inhibitors are inefficient in pRB-deficient cells, as cell cycle transcription is induced with independence of CDK4/6 activity. The subject compounds were therefore evaluated to what extent depend on the presence of a functional pRB. Two pairs of human cancer cell lines representing pRB-wild-type and pRB-deficient breast cancer and glioblastoma were tested. […].

CDK5/p35NCK = CDK5/p35NCK (Homo sapiens, UniProt Q00535); experiment: Kinase profiling; assay type: biochemical; conditions: 10 semi-logarithmic dilutions from 50 μM, singlicate
CDK4/CycD3 = CDK4/CycD3 (Homo sapiens, UniProt P11802); experiment: Kinase profiling; assay type: biochemical; conditions: 10 semi-logarithmic dilutions from 50 μM, singlicate
CDK9/CycK = CDK9/CycK (Homo sapiens, UniProt P50750); experiment: Kinase profiling; assay type: biochemical; conditions: 10 semi-logarithmic dilutions from 50 μM, singlicate
[6] = Metabolic stability in hepatocytes; assay type: in vitro ADME; conditions: mouse, 60-90 min test
[7] = Permeability Caco-2 cells; assay type: in vitro ADME; conditions: human, Caco-2
Caco-2 cells = experiment: Permeability Caco-2 cells; assay type: in vitro ADME
CDK3/CycC = CDK3/CycC (Homo sapiens, UniProt Q00526); experiment: Kinase profiling; assay type: biochemical; conditions: 10 semi-logarithmic dilutions from 50 μM, singlicate
[8] = Thermodynamic solubility (pH 7.4); assay type: physicochemical; conditions: pH 7.4, aqueous buffer, thermodynamic from solid

Sequence of CDK3/CycC (Q00526 whole entry): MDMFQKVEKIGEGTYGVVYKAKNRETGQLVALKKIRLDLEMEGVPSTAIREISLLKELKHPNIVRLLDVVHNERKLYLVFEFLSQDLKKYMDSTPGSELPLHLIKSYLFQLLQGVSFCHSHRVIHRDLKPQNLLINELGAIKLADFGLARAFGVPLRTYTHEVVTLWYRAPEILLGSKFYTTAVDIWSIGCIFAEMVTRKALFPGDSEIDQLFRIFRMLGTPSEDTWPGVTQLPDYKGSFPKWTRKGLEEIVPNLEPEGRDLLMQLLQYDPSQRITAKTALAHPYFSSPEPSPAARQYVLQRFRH
Sequence of CDK3/CycC (P24863 whole entry partner): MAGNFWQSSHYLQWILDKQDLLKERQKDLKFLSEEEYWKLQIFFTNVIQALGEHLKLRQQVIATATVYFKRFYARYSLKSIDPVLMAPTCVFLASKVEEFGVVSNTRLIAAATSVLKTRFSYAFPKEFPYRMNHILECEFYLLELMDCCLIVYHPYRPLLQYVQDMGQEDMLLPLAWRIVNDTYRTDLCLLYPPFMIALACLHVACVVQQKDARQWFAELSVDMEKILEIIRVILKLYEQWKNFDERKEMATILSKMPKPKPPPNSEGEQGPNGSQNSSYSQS
Sequence of CDK3/CycE1 (Q00526 whole entry): as the sequence (Q00526 whole entry) above
Sequence of CDK3/CycE1 (P24864 whole entry partner): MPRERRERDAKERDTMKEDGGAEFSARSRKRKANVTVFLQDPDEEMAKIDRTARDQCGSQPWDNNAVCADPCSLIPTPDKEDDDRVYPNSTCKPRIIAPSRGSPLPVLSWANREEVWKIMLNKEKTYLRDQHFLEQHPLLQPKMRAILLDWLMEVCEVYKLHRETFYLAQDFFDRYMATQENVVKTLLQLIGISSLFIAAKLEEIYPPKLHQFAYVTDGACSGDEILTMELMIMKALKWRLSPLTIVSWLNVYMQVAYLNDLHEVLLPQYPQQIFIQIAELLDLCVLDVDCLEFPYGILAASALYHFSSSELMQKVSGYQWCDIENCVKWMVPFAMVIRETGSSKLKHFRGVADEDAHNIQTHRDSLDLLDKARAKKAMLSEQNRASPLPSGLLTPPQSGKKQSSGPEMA
Sequence of CDK5/p35NCK (Q00535 whole entry): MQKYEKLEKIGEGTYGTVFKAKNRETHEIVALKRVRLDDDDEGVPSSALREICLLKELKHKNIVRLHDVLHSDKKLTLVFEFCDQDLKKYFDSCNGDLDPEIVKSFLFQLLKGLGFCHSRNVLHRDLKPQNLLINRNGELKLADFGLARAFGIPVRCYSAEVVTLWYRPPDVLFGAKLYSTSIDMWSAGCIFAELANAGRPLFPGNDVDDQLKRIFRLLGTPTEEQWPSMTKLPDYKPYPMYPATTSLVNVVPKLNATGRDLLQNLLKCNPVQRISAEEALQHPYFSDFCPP
Sequence of CDK5/p35NCK (Q15078 whole entry partner): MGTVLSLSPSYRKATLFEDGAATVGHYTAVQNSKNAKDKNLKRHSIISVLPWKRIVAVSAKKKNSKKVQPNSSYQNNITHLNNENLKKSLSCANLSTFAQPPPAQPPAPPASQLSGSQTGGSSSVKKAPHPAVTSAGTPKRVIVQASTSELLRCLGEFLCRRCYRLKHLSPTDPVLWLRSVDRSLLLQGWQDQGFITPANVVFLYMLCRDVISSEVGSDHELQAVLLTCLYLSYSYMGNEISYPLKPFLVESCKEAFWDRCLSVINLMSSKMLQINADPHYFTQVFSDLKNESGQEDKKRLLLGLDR
Sequence of CDK5/p25NCK (Q00535 whole entry): as the sequence (Q00535 whole entry) above
Sequence of CDK5/p25NCK (Q15078 99-307 partner limits assumed): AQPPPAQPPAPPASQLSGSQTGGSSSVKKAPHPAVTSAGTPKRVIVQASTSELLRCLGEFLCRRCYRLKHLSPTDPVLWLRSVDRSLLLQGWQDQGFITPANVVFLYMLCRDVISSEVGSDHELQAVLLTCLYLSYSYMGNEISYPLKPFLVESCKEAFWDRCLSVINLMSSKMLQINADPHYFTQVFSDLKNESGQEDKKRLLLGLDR
Sequence of CDK8/CycC (P49336 whole entry): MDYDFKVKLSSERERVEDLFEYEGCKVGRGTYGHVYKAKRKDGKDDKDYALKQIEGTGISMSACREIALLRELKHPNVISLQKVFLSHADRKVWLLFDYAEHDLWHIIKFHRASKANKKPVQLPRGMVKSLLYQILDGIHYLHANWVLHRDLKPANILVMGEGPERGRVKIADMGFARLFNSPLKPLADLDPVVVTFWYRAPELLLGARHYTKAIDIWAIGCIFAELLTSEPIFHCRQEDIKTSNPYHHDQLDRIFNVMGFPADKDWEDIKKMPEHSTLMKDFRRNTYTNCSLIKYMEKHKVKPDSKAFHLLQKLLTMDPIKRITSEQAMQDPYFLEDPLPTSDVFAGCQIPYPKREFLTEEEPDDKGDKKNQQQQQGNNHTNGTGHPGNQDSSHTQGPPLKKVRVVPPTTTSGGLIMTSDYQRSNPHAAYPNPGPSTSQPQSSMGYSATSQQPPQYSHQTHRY
Sequence of CDK8/CycC (P24863 whole entry partner): as the sequence (P24863 whole entry partner) above
Sequence of CDK1/CycA2 (P06493 whole entry): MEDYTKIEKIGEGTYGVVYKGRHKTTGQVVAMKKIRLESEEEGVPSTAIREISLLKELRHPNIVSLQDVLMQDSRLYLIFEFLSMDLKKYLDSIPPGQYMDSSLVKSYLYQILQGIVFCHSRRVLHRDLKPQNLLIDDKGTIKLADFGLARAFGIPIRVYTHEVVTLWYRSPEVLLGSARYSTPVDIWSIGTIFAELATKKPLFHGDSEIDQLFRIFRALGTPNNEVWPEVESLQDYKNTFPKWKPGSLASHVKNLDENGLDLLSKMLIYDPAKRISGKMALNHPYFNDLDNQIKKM
Sequence of CDK1/CycA2 (P20248 whole entry partner): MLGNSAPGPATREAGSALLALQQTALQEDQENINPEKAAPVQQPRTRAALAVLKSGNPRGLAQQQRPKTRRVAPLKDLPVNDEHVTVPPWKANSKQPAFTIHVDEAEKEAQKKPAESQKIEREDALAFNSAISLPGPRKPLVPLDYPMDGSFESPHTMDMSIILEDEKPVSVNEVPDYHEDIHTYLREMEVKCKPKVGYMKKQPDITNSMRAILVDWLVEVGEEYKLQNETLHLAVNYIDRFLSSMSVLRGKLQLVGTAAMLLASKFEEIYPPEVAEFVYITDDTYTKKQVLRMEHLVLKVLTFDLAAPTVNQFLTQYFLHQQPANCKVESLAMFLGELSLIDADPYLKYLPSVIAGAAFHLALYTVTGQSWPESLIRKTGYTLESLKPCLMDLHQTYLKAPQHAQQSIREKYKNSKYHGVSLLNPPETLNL
Sequence of CDK7/CycH/MAT1 (P50613 whole entry): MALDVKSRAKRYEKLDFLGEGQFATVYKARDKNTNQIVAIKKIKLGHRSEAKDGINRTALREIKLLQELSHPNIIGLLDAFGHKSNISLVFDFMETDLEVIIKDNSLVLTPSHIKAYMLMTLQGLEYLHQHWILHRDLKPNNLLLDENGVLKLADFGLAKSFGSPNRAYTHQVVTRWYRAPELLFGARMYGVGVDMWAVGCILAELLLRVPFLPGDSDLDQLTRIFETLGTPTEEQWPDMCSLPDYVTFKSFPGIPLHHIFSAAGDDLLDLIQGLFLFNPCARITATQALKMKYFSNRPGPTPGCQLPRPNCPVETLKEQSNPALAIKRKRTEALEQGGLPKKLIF
Sequence of CDK7/CycH/MAT1 (P51946 whole entry partner): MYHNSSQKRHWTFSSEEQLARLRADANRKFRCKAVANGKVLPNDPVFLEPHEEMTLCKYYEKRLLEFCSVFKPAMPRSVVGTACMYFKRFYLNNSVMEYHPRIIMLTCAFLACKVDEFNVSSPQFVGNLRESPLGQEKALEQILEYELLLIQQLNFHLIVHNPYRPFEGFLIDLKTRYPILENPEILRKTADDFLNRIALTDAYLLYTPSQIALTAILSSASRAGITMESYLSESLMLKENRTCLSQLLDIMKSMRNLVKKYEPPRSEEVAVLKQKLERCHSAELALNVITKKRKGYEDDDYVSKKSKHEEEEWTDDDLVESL
Sequence of CDK7/CycH/MAT1 (P51948 whole entry partner): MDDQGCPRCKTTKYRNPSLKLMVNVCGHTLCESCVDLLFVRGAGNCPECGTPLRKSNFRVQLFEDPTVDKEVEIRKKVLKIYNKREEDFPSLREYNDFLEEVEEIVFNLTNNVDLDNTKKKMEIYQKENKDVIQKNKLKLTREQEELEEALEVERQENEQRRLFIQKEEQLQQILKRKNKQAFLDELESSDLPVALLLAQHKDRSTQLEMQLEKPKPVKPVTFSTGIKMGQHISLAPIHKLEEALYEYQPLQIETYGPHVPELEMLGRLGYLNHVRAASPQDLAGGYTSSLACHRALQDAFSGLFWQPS

What does the source list for `CC(O)CCC1CCN(c2ccc(Nc3ncc4ccc(=O)n([C@@H]5CC6CCC5C6)c4n3)cc2)CC1` (stereo partly drawn) [PS004, 8-((2R)-bicyclo[2.2.1]heptan-2-yl)-2-((4-(4-(3-hydroxybutyl)piperidin-1-yl)phenyl)amino)pyrido[2,3-d]pyrimidin-7(8H)-one]?
IC50 (CDK6/CycD3): 442 nM; IC50 (PIM1): > 50000 nM; IC50 (HIPK2): > 50000 nM; IC50 (CDK6/CycD1): 27.4 nM; IC50 (CDK5/p25NCK): 4410 nM; IC50 (CDK3/CycE1): 654 nM; IC50 (CDK8/CycC): 162 nM; IC50 (CDK1/CycA2): 14500 nM; microsomal CLint ([1]; read-out: Metabolic stability, Mouse microsomes: Clearance): 54.5 µL/min/mg; half-life ([1]; read-out: Metabolic stability, Mouse microsomes: t1/2): 0.423 h; IC50 (CDK12wt/CycK): 923 nM; IC50 (CDK2/CycA2): 452 nM; IC50 (ERK1): 37800 nM; Summary: permeability [2]: Low; Summary: solubility [2]: Insoluble,; Summary: stability [2]: Stable; kinase affinity profile [3]: affinity not only for CDK4/6 but also for CDK2/9; IC50 (CDK7/CycH/MAT1): 21700 nM; phospho-RB levels in the xenografts ([4]; FIG. 9A): reduction of phospho-Rb phosphorylation which however did not reach statistical significance; Ki67 levels in the xenografts ([4]; FIG. 9B): slightly diminished; tumor weight ([4]; vs DMSO, FIG. 8A): significantly reduced; tumor growth ([4]; vs DMSO, FIG. 8B): significantly reduced; efficiency in pRB-deficient versus pRB-wild-type glioblastoma cells [5]: more inefficient; IC50 (CDK5/p35NCK): 1670 nM; IC50 (CDK4/CycD3): 123 nM; IC50 (CDK9/CycK): 141 nM; hepatocyte CLint ([6]; read-out: Metabolic stability, Mouse heptocytes: Clearance): 9.7 µL/min/1e6 cells; half-life ([6]; read-out: Metabolic stability, Mouse heptocytes: t1/2): 2.39 h; Papp [7]: < 0.44 ×10⁻⁶ cm/s; Permeability Caco-2 cells: Permeability, grade in words (Caco-2 cells): (low); IC50 (CDK3/CycC): 2100 nM; solubility thermodynamic [8]: < 2 µM
